This assay deals with U87ΔEGFR glioma cells.

The source of these data is patent US10232002B1, “Oncolytic HSV1 vectors and methods of using the same” (priority 2012, dated 2019).

`Cn1nnc2c(C(N)=O)ncn2c1=O` [TMZ, temozolomide] came in with an EC30 dose of 66 µM.
